# In US9757358B2 (priority 2010, dated 2017):
# Experiments:
# opioid analgesia = details: Chichenkov et al. 1985; cited from earlier work
# morphine dependence = details: cited from earlier work
# [1] = tested on: post-operative pain in rats (mechanical allodynia); details: rat, in vivo
# [2] = tested on: post-operative pain in rats (thermal hyperalgesia); experiment: Thermal hyperalgesia (Ugo Basile plantar test) after plantar incision, post-operative pain in rats; type: in vivo, rat; details: given 3.5 h after surgery
# sigma 2 (σ-2) site = sigma 2 (σ-2) site (Homo sapiens, UniProt Q5BJF2); details: cited from earlier work
# Chain of sigma 2 (σ-2) site (Q5BJF2 whole entry): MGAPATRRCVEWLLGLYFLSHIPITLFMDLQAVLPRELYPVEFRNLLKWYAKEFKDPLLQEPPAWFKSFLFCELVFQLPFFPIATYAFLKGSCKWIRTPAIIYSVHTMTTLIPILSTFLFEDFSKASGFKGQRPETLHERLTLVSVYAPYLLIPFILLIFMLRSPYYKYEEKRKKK
molecule,measurement,setting,value
"O=C(CCCN1CCC(O)(c2ccc(Cl)cc2)CC1)c1ccc(F)cc1 [Haloperidol, haloperidol]","effect on activity of opioids and opiates (morphine, DADL, bremazocine)",opioid analgesia,potentiates the activity of different opioids and opiates
COc1ccc(CCN2CCN(CCCc3ccccc3)CC2)cc1OC [SA4503],effect on addiction to morphine,"morphine dependence; morphine-induced place preference, Nomura et al. 1999",modulatory effect on addiction to morphine
"Cc1cc(OCCN2CCOCC2)nn1-c1ccc2ccccc2c1 [compound 63, 4-{2-[5-Methyl-1-(naphthalen-2-yl)-1H-pyrazol-3-yloxy]ethyl}morpholine]",effect on buprenorphine analgesia,[1],enhances buprenorphine analgesia
same,effect on morphine analgesia,[1],enhances morphine analgesia
same,effect on oxycodone analgesia,[1],enhances oxycodone analgesia
same,effect on tapentadol analgesia,[1],enhances tapentadol analgesia
same,effect on tramadol analgesia,[1],enhances tramadol analgesia
same,effect on tramadol analgesia,"[2]; compound 63 5, 10, 20, 40 mg/kg + tramadol 1.25 mg/kg",enhances tramadol analgesia
same,effect on morphine analgesia,"[2]; compound 63 10, 20, 40, 80 mg/kg + morphine 0.625 mg/kg",enhances morphine analgesia
SKF 10047,affinity for the sigma 2 site,sigma 2 (σ-2) site,micromolar affinity
dehydroepiandrosterone sulfate [DHEA],effect on development of morphine dependence,morphine dependence; Noda et al. 2001,some capacity to attenuate the development of morphine dependence
